Measurements taken from patent US20150087673A1, “METHODS FOR USING AND BIOMARKERS FOR AMPK-ACTIVATING COMPOUNDS” (RIGEL PHARMACEUTICALS, INC., priority 2013, published 2015).

Experiments:
AMPK = AMPK activation assay (enzyme-linked immunosorbent assay); type: cell-based
Procedure, shortened: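 Kit-based immunoassay; compounds screened as activators; standard reagents and protocol.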

db/db mice [1] = assay: [U-13C]-palmitate tracer analysis (13CO2/12CO2 enrichment) in db/db mice; type: in vivo, mouse
Text: The elevated levels of BHBA detected by the global metabolite profiling are an indirect indicator of an increase in lipid oxidation. […] Appearance of ^13CO2 occurs via β-oxidation of the labeled palmitate to release ^13C-acetyl CoA, which must pass through one round of the TCA cycle before the labeled carbon can be given off as ^13CO2. An increased β-oxidation rate will result in a corresponding increase in ^13CO2 enrichment. In agreement with the elevation in relative BHBA levels detected in liver, adipose, and skeletal muscle tissues, an increase in ^13CO2 enrichment is observed for compound 309 treatment across all three tissues at both 60 and 120 minutes after palmitate administration. Ratios of ^13CO2 to ^12CO2 were higher for all treatment groups, including the vehicle, at 120 minutes compared to 60 minutes after palmitate feeding (FIG. 2). This time-dependent elevation was due to the slow absorption kinetics of the orally administered tracer suspension.
Male db/db mice (8 weeks) were orally gavaged once daily with vehicle, 5 mg/kg compound 309, or 10 mg/kg compound 309. Thirty minutes after dosing at day 8, 0.5 mg/kg of the metabolic tracer was administered, either via intraperitoneal injection for [U-^13C]-glucose or oral gavage for [U-^13C]-palmitate, followed by collection of liver, muscle, adipose tissue, and plasma at the timepoints indicated in the figure legends. Frozen samples were sent to SiDMAP, LLC (Los Angeles, Calif.) for isotope tracer analysis [Boros L G, Huang D, Heaney A P (2012) Fructose Drives Glucose via Direct Oxidation and Promotes Palmitate/Oleate Co-Release from Hepg2 Cells: Relevance with the Randle Cycle. […]
The elevated levels of BHBA detected by the global metabolite profiling are an indirect indicator that compound 309 treatment increases lipid oxidation. […] In agreement with the elevation in relative BHBA levels detected in liver, adipose, and skeletal muscle tissues, an increase in ^13CO2 enrichment is observed for compound 309 treatment across all three tissues at both 60 and 120 minutes after palmitate administration. […]

db/db mice [2] = assay: [U-13C]-D-glucose tracer analysis in db/db mice; type: in vivo, mouse
Description: Male db/db mice (8 weeks) were orally gavaged once daily with vehicle, 5 mg/kg compound 309, or 10 mg/kg compound 309. Thirty minutes after dosing at day 8, 0.5 mg/kg of the metabolic tracer was administered, either via intraperitoneal injection for [U-^13C]-glucose or oral gavage for [U-^13C]-palmitate, followed by collection of liver, muscle, adipose tissue, and plasma at the timepoints indicated in the figure legends. Frozen samples were sent to SiDMAP, LLC (Los Angeles, Calif.) for isotope tracer analysis [Boros L G, Huang D, Heaney A P (2012) Fructose Drives Glucose via Direct Oxidation and Promotes Palmitate/Oleate Co-Release from Hepg2 Cells: Relevance with the Randle Cycle. Metabolomics 2: 107-115; Huang J, Simcox J, Mitchell T C, Jones D, Cox J, et al. (2013) Iron regulates glucose homeostasis in liver and muscle via AMP-activated protein kinase in mice. FASEB J.]. [U-^13C]-D-glucose and [U-^13C]-palmitate were from Sigma-Aldrich. Sample preparation, analysis, and informatics were performed on blinded samples. Statistical analyses were performed using the 2-tailed Student t test.
A more sensitive [U-^13C]-D-glucose tracer analysis was carried out as follows: Non-fasted db/db mice treated with vehicle or compound 309 for one week were given an intraperitoneal injection of an [U-^13C]-D-glucose tracer (0.5 mg/kg) followed by measurements of tracer carbon incorporation into various metabolites after glucose injection.

[3] = Compound plasma levels after oral dosing; type: in vivo, mouse
Description: Metabolite profiling of tissues from db/db mice orally dosed with either vehicle or 10 mg/kg compound 309 was used to characterize in detail the effects of the present AMPK activators on nutrient pathways in a commonly used mouse model of type 2 diabetes. […] Since AMPK activation results in both acute and chronic changes to metabolic pathways, samples from non-fasted mice treated for three days with compound 309 were analyzed. Samples were collected thirty minutes after compound dosing when compound 309 plasma levels as well as tissue AMPK activation were maximal.

glucose uptake = assay: Glucose uptake in vitro; type: cell-based

COc1ccc(C(=O)C2CCN(C(=O)c3ccc(C(=O)NC4CCN(Cc5ccc(C#N)cc5)CC4)cn3)CC2)cc1 [Compound 309, N-(1-(4-cyanobenzyl)piperidin-4-yl)-6-(4-(4-methoxybenzoyl)piperidine-1-carbonyl)nicotinamide]
EC50 (AMPK): < 500 nM | 13CO2 enrichment after [U-13C]-palmitate (db/db mice [1]; liver, adipose and skeletal muscle, 60 and 120 minutes after palmitate administration, treated one week): increase | fatty acid oxidation (db/db mice [1]; liver, skeletal muscle and adipose tissue, chronic treatment of db/db mice): directly upregulated | dose-dependence of 13CO2 enrichment after [U-13C]-palmitate (db/db mice [1]; skeletal muscle, 5 and 10 mg/kg): no dose-dependence | skeletal muscle palmitate and myristate levels (db/db mice [2]; after saponification of muscle acylglycerols and acylcarnitines): significant decreases | 13CO2 release (glucose oxidation via the TCA cycle) (db/db mice [2]; all three tissues): increased | 13CO2 enrichment after [U-13C]-D-glucose (db/db mice [2]; liver and adipose tissues, 60 and 90 minutes post-tracer): clear dose-dependent increase | 13C-labeled fraction of palmitate (db/db mice [2]; plasma or liver, data not shown): no increase | dose-dependence of complete glucose tracer oxidation (db/db mice [2]; skeletal muscle): no dose-dependence | 13C-labeled fatty acids in palmitate and myristate pools (db/db mice [2]; skeletal muscle, 60 and 90 minutes): significantly enriched | 13CO2 enrichment after [U-13C]-D-glucose vs vehicle (db/db mice [2]; skeletal muscle, 60 minutes): no differences | level of 13C-labeled myristate compared to vehicle (db/db mice [2]; skeletal muscle, 90 minute timepoint): two-fold higher | tracer oxidation (13CO2 enrichment) after [U-13C]-D-glucose (db/db mice [2]; skeletal muscle, 90 minutes): clearly sustained | time after compound dosing when plasma levels were maximal [3]: thirty | glucose uptake (glucose uptake): robust enhancement
